Results reported in patent US9765154B2, “Phosphohistidine analogs” (THE ROCKEFELLER UNIVERSITY, priority 2010, dated 2017).

Experiment: ionization of the phosphonate group (pK values)
Assay type: physicochemical
Description: [drawing 33] it is isosteric with phosphorylated histidine. Further, the electrostatics of the phosphonoltriazolylalanine mimic those of phosphorylated Histidine. In particular, the phosphonate group of N-methyl-triazolylphosphonic acid is fully ionized at physiological pH (pK1=2.3 and pKA2=5.3), analogous to pHis.

N-methyl-triazolylphosphonic acid
pK1 of the phosphonate group: 2.3
pKA2 of the phosphonate group: 5.3
